Calls of active or inactive are those of the source. Cut-off read from the data, not from the text of the source, for most assays here: actives have a measured EC50 and inactives only a lower limit.
Legend:
[1] = Shn3 3'UTR reporter inhibitors, dose response, cell-based, Clone20 osteoblasts, firefly luciferase, cherry-picked (AID 624132); type: functional;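 note: firefly luciferase luminescence from reporter carrying the Shn3 3'UTR in osteoblasts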
[2] = control 3'UTR Renilla luciferase suppression, dose response, counter-screen for Shn3 inhibitor project, cell-based, Clone20-Shn3RL, cherry-picked (AID 624133); type: functional
[3] = HepG2 cell cytotoxicity, dose response, cytotoxicity control for Shn3 inhibitor project, CellTiter-Glo, cherry-picked (AID 624134); type: functional, cell-based
[4] = cytotoxicity toward NIH3T3 fibroblasts, dose response, counter-screen, cell-based, ATP luminescence, mouse fibroblasts (AID 2010); type: functional;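 note: cells exposed to compound for about 90 hours before reading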
[5] = inhibitors of intracellular T. cruzi replication, confirmation, NIH3T3 host cells, beta-gal luminescence (AID 2044); type: functional, cell-based;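 note: intracellular parasites grown in NIH/3T3 mouse fibroblasts as host cells; luminescent beta-galactosidase reporter signal from transgenic T. cruzi replicating inside host cells; inhibitors lower the luminescence signal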
cells [6] = type: functional, cell-based
cells [7] = type: functional, cell-based; remark: listed apart in the source
Streptococcus = test: Group A Streptococcus viability loss, dose response, counter-screen for streptokinase expression inhibitor project, luminescence, BacTiterGlo (AID 1915); type: functional, organism-based;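 note: potency for reduction of bacterial viability or growth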
Streptokinase A = target: T1, Streptokinase A (Streptococcus pyogenes serotype M1, UniProt P10520); test: S. pyogenes streptokinase expression inhibitors, potency, dose response, plasminogen activation absorbance, OD405 (AID 1914); type: functional, Streptococcus pyogenes M1 GAS;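 note: secreted streptokinase activity via plasminogen activation per viability signal from cell pellet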
T1 sequence (P10520 whole entry): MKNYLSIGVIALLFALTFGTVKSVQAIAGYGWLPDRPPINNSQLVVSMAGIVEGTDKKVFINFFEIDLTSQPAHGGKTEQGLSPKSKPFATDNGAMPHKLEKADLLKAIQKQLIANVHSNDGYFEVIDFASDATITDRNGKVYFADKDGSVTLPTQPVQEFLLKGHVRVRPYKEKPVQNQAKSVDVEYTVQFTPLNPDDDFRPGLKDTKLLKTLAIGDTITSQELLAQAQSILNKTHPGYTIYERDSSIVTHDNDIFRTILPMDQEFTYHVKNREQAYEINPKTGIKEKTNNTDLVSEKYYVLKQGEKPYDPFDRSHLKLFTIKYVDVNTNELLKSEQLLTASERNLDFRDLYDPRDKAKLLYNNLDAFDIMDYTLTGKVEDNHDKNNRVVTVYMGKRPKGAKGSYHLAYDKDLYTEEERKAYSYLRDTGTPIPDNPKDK

[8] = system: Streptococcus sp. 'group A'; test: growth inhibition of control SK(-) GAS strain, dose response, counter-screen for streptokinase expression inhibitor project, luminescence, kanamycin, BacTiterGlo, confirmation (AID 1900); type: functional, organism-based
[9] = target: Luciferin 4-monooxygenase (Photinus pyralis, UniProt P08659); test: firefly luciferase enzyme inhibitors, dose response, biochemical, luminescence (AID 1891)
[10] = Luminescence Cell-Based Dose Confirmation HTS to Identify Inhibitors of Platelet Dense Granule Release. [Related pubchem assays: 1663 (Primary HTS), 1678 (Summary of Project)]; type: functional
Cytochrome P450 2C9 = Cytochrome P450 2C9 (Homo sapiens, UniProt P11712)
[11] = inhibitors of firefly luciferase expression or activity, dose response, H4 neuroglioma cells, luminescence (AID 1990); type: functional, cell-based
[12] = Luminescence Cell-Based Dose Response HTS to Identify Inhibitors of 5'UTR Stem-Loop Driven Prion Protein mRNA Translation in H4 Neuroglioblastoma Cells. [Related pubchem assays: 1827 (Project Summary), 1813 (Primary HTS)]; type: functional
[13] = inhibitors of SNCA 5'UTR-driven reporter translation, confirmation, H4 neuroglioma cells, luminescence (AID 1988); type: functional, cell-based
[14] = HEp-2 cell cytotoxicity, dose response, cytotoxicity control for RSV inhibitor project, HTS (AID 2410); type: functional; conditions: human respiratory syncytial virus

Cytochrome P450 2C9, sequence (P11712 whole entry): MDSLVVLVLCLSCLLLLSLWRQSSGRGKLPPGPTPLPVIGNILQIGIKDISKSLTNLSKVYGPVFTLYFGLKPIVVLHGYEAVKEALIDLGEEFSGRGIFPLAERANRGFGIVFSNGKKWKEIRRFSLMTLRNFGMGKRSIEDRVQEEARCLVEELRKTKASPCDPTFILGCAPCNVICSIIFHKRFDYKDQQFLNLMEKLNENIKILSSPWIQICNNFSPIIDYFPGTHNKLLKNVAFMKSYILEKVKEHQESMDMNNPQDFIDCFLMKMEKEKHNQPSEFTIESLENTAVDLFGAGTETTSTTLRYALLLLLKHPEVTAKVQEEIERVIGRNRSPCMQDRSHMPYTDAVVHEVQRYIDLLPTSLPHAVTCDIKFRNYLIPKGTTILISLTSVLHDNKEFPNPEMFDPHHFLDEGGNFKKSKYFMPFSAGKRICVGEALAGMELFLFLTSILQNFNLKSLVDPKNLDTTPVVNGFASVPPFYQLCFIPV
Luciferin 4-monooxygenase, sequence (P08659 whole entry): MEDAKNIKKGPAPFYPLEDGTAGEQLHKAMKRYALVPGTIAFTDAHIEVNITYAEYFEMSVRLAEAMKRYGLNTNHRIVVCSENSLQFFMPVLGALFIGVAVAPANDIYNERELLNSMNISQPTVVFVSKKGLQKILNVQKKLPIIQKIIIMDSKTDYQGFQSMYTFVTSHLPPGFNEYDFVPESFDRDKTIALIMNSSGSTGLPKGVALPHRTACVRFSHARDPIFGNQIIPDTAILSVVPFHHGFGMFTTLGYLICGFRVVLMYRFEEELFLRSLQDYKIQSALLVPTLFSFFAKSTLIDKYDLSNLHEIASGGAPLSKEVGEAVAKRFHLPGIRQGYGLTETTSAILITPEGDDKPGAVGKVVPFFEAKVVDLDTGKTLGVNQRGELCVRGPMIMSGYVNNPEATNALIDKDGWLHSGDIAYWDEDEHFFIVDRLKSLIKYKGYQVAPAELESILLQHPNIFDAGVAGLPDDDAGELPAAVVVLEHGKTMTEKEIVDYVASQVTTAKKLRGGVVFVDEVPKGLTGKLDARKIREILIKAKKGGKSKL

## COc1ccc(CC(N)c2csc(NC(=O)c3cc(C(C)(C)C)nn3Cc3ccccc3)n2)cc1 (stereo not drawn)
[1]
  AC50: 9.53 µM (active)
[2]
  AC50: 22.9 µM (active)
[3]
  AC50: 9.69 µM (active)

## CC(C)(C)n1nnnc1C(c1cccs1)N1CCCC2(CCCCC2)C1 (stereo not drawn)
[1]
  AC50: 21.7 µM (active)
[3]
  AC50: > 70 µM (inactive)
[4]
  EC50: > 60 µM (not active)
[5]
  EC50: 2.15 µM (active)

## O=C(CSc1nnc(-c2ccco2)n1Cc1ccco1)NCc1ccccc1
Cells [6]
  EC50: > 350 µM (not active)
Cells [7]
  EC50: > 350 µM (not active)

## CCCn1c2ccccc2c2cnn(CC(=O)NC3CCCC(C)C3C)c(=O)c21 (stereo not drawn)
Cells [6]
  EC50: > 350 µM (not active)
Cells [7]
  EC50: > 350 µM (not active)

## CC(=O)N1CCC(=NNc2nc3ccccc3[nH]2)CC1
Cells [6]
  EC50: > 350 µM (not active)
Cells [7]
  EC50: 32.3 µM (active)

## COCCn1c(-c2ccc(OC)cc2)cnc1SCC(=O)Nc1ccc(OC)cc1OC
Cells [6]
  EC50: > 350 µM (not active)
Cells [7]
  EC50: > 350 µM (not active)

## CCCOc1ccc(C2C(C(=O)c3cc4ccccc4o3)=C(O)C(=O)N2c2cc(C)on2)cc1OC (stereo not drawn)
Streptococcus
  EC50: 5.24 µM (active)
Streptokinase A
  EC50: > 150 µM (not active)
[8]
  EC50: 1.2 µM (active)

## COc1ccc(CCNC(=O)c2ccc(CNS(=O)(=O)c3ccc(C(C)(C)C)cc3)cc2)cc1OC
Streptococcus
  EC50: 35.9 µM (active)
Streptokinase A
  EC50: > 150 µM (not active)

## CCn1c(SCC(=O)c2cc(C)ccc2C)nc2cc(S(=O)(=O)N3CCOCC3)ccc21
Cells [6]
  EC50: > 350 µM (not active)
Cells [7]
  EC50: > 350 µM (not active)

## N=c1c2c(-c3ccccc3)c(-c3ccccc3)oc2ncn1Cc1ccco1
Streptococcus
  EC50: 30.3 µM (active)
Streptokinase A
  EC50: 17.5 µM (active)
[8]
  EC50: 6.44 µM (active)

## O=C(N/N=C/c1cc2cc3c(cc2nc1Cl)OCO3)c1ccncc1
[9]
  EC50: > 112 µM (not active)
Cells [6]
  EC50: > 350 µM (not active)
Cells [7]
  EC50: > 350 µM (not active)
[10]
  EC50: > 112 µM (not active)

## CCCCCOc1ccc(Br)cc1CSC(=N)N
[1]
  AC50: 1.47 µM (active)
[2]
  AC50: 10.5 µM (active)
[3]
  AC50: 11.3 µM (active)

## COC(=O)N/N=C\C=C\c1ccc2c(c1)OCO2
Cytochrome P450 2C9
  AC50: inconclusive

## COc1ccc(-c2cc3nc(-c4ccccc4)cc(N4CCCC(O)C4)n3n2)cc1 (stereo not drawn)
Streptococcus
  EC50: 14.3 µM (active)
Streptokinase A
  EC50: > 150 µM (not active)
[8]
  EC50: 6.75 µM (active)

## CC(C)c1ccc(-c2c(C#N)c(N)nc3c2CCCCC3)cc1
[11]
  EC50: > 120 µM (not active)
[12]
  EC50: > 120 µM (not active)
Cells [6]
  EC50: > 350 µM (not active)
Cells [7]
  EC50: > 350 µM (not active)
[13]
  EC50: 41.9 µM (active)

## Cc1ccc(-c2nn(-c3ccccc3)cc2/C=N/n2c(S)nnc2-c2cccs2)cc1
Streptococcus
  EC50: 82.8 µM (active)
Streptokinase A
  EC50: 103 µM (active)
[14]
  CC50: 14.7 µM (active)
[8]
  EC50: 10.3 µM (active)

## COc1ccc(S(=O)(=O)N2CCN(C(=O)c3cc(-c4ccc(Br)cc4)[nH]n3)CC2)cc1OC
[1]
  AC50: 4.55 µM (active)
[2]
  AC50: 4.76 µM (active)
[3]
  AC50: 55.6 µM (active)
